Measured values reported in patent publication US5106857A, “N-(1-methyl-3-pyrrolidinyl)-1-(phenylmethyl)-1H-benzimidazol-2-amine and analogs as antiarrhythmic and muscle relaxing agents” (A. H. Robins Company, Incorporated, priority 1991, dated 1992).

What was measured:
[1] = tested on: morphine-induced Straub Tail; experiment: Morphine-induced Straub Tail in Mice Test (muscle relaxant); assay type: in vivo; conditions: scored 30 min after test compound; for ED50: Mus musculus, 0.5 h, IP, morphine sulfate 60 mg/kg s.c. 15 min later, read-out: Straub Tail Inhibition ED50
Experimental: Administration of morphine sulfate to a mouse causes the tail to become elevated perpendicular to the body. […] The test procedure relied on to indicate positive muscle relaxant activity is the morphine-induced Straub Tail in Mice Test described by G. D. Novak in DRUG DEVELOPMENT RESEARCH (1982) 2: 383-386, except 8 animals per group were used per test rather than 10. The test is summarized as follows: The test drug, reference drug, and control articles to be administered are prepared in saline, 0.5% aqueous methylcellulose suspension or other, depending on solubility, in such concentration that the volume administered is 10 ml/kg. The initial screening dose of the test drug is usually 100 mg/kg. Groups of 8 mice are given an IP dose of a compound or vehicle prepared as described above. After 15 min, mice are administered morphine sulfate, 60 mg/kg in saline, subcutaneously. Fifteen minutes after administration of morphine (i.e., 30 min after test compound administration), mice were scored for presence of Straub Tail defined as an elevation of the tail at least 90 degrees from the horizontal. An ED50 value may be determined from at least three logarithmically spaced doses by the method of Litchfield and Wilcoxon (1949), J. PHARMACOL. EXP. THER. 96: 99-113.

[2] = tested on: cardiac arrhythmias (coronary artery occlusion); experiment: Coronary artery ligation induced arrhythmias (conscious dogs); assay type: in vivo, dog (adult mongrel); conditions: for Antiarrhythmic Activity: Number of dogs in which drug is considered active/number treated: active = normal sinus rhythm within 2 hours
Experimental: Cardiac arrhythmias in dogs are induced by surgically restricting blood flow in a coronary artery. The test compound is administered intravenously and the heart rate and number and percentage of ectopic beats recorded at 15 minute intervals.
Adult mongrel dogs which are in the conscious state were used for the test and cardiac arrhythmias were induced by prior (22-24 hr) surgical preparation in which blood flow through a coronary artery was occluded by use of a constrictor device as reported by Smith et al, 1973. A Grass Model 79 Polygraph was used for recording the electrocardiogram (Grass 7P4 Preamplifier).
The test compound was administered by infusion (Harvard Model 942 Infusion Pump) into a saphenous vein to the test group of dogs at a rate of 0.5 mg/kg/min. Concentration of compound was adjusted according to the weight of the dog to allow a volume of infusion of 0.5 ml/min. Following the administration of the test compound, the heart rate, number of ectopic beats (ectopic beats/HR×1000) were recorded at 15 min intervals. The compound was considered active if it abolished the ectopic ventricular frequency and caused a return to normal sinus rhythm within 2 hours of administration. Cardiac arrhythmias produced by modification of method of Harris, 1950, Circulation 1, 1318, as reported by Smith et al, 1973, Pharmacologist 15, 192.

## CN1CCC(Nc2nc3ccccc3n2Cc2ccccc2)CC1 [Compound 4, N-(1-Methyl-4-piperidinyl)-1-(phenylmethyl)-1H-benzimidazol-2-amine]
[1]; dose 100 mg/kg IP
  Straub Tail Inhibition %: -25%
[2]; dose 9 mg/kg IV
  Antiarrhythmic Activity: Number of dogs in which drug is considered active/number treated: 2/6

## CCn1c(NC2CCN(C)C2)nc2ccccc21 (stereo not shown) [Compound 2, 1-Ethyl-N-(1-methyl-3-pyrrolidinyl)-1H-benzimidazol-2-amine]
[2]; dose 7 mg/kg IV
  Antiarrhythmic Activity: partially active (Reduces ectopic beats from 50-99%)

## CCN1CCC(Nc2nc3ccccc3n2CC)C1 (stereo not shown) [Compound 1, 1-Ethyl-N-(1-ethyl-3-pyrrolidinyl)-1H-benzimidazol-2-amine]
[1]
  ED50: 36 mg/kg
[2]; dose 5 mg/kg IV
  Antiarrhythmic Activity: Number of dogs in which drug is considered active/number treated: 1/2

## CN1CCC(Nc2nc3ccccc3n2Cc2ccccc2)C1 (stereo not shown) [Compound 3, N-(1-Methyl-3-pyrrolidinyl)-1-(phenylmethyl)-1H-benzimidazol-2-amine]
[1]
  ED50: 21 mg/kg
[2]; dose 7 mg/kg IV
  Antiarrhythmic Activity: Number of dogs in which drug is considered active/number treated: 7/8
